This note sets out measurements from patent publication US10081647B2, “Phosphate substituted quinolizine derivatives useful as HIV integrase inhibitors” (Merck Sharp & Dohme Corp., priority 2015, dated 2018).

The assay concerns HIV-1 (NL4-3 strain). Nature of the assay: Assay for inhibition of HIV replication (MT4-gag-GFP reporter cell line, kinetic assay). The note with it: IP from 4-parameter dose response curve. The format is cell-based. On the procedure:
This assay is useful for assessing the ability of a compound of the present inventiongin to inhibit HIV replication. The assay is a kinetic assay that employs a reporter cell line (MT4-gag-GFP) to quantify the number of new cells infected in each round of replication.
MT4-GFP cells (250,000 cells/ml) are bulk-infected with HIV-1 (NL4-3 strain) at low multiplicity of infection (MOI) in RPMI+10% FBS for 24 hours. Cells are then washed once in RPMI+10% FBS and resuspended in RPMI+0% or 10% or 100% normal human serum (NHS). Test compounds are serial-diluted in DMSO using an ECHO liquid handler. The infected MT4-GFP cells are added to a 384-well poly-D-lysine coated black plate with clear bottom in which the diluted test compounds are placed. The cells are seeded at 8,000 cells per well and the final DMSO concentration is adjusted to 0.4%. The infected cells (Green GFP cells) are then quantified at both 24 and 48 hours post incubation using Acumen eX3. Viral reproductive ratio (R0) is determined using the number of infected cells at 48 hours divided by the number of infected cells at 24 hours. Percent viral growth inhibition is calculated by [1−(R−Rtripledrug)/(RDMSO−Rtripledrug)]*100. Compound potency IP or IC50 can be determined using a 4-parameter dose response curve analysis.

Setting [1] is: infected MT4-GFP cells in 100% normal human serum, read-out: WILD TYPE CELL ASSAY Viking IP (100% NHS).
Where [2] appears, read: infected MT4-GFP cells in RPMI + 0% normal human serum, read-out: WILD TYPE CELL ASSAY Viking IP (0% NHS).
[3] abbreviates: Human immunodeficiency virus 1, NL43, infected MT4-GFP cells in RPMI + 0% normal human serum, read-out: WILD TYPE CELL ASSAY Viking IP (0% NHS).
[4] abbreviates: Human immunodeficiency virus 1, NL43, infected MT4-GFP cells in 100% normal human serum, read-out: WILD TYPE CELL ASSAY Viking IP (100% NHS).

Structures are written as SMILES. Read-outs that look alike come from different tables or passages of the source.

On to `COC1Cn2cc(C(=O)NCc3ccc(F)cc3F)c(=O)c(O)c2C(=O)C1(C)CCOCCP(=O)(OCOC(=O)OC(C)C)OCOC(=O)OC(C)C` (centres unmarked) [Compound 63], for which the IC50 under setting [1] was found to be 566 nM and the IC50 under setting [2] came out at 4.6 nM.
The like results for `CC(C)OC(=O)OCOP(=O)(CCCNC1Cn2cc(C(=O)NCc3ccc(F)cc3F)c(=O)c(O)c2C(=O)C1(C)C)OCOC(=O)OC(C)C` (centres unmarked) [Compound 110] were, in that order, 154 nM and 8.8 nM.
The like results for `CC1(C)C(=O)c2c(O)c(=O)c(C(=O)NCc3ccc(F)cc3F)cn2CC1OCCCP(=O)(O)O` (centres unmarked) [Compound 74] were, in that order, more than 8400 nM and more than 1050 nM.
Consider `CC(C)OC(=O)OCOP(=O)(CCCOC1Cn2cc(C(=O)NCc3ccc(F)cc3F)c(=O)c(O)c2C(=O)C1(C)C)OCOC(=O)OC(C)C` (centres unmarked) [Compound 76], for which the IC50 runs as follows: under setting [1], 2770 nM; under setting [2], 45 nM.
The like results for `CC(C)OC(=O)OCOP(=O)(CCCOC1Cn2cc(C(=O)NCc3ccc(F)cc3F)c(=O)c(O)c2C(=O)C1(C)C)OCOC(=O)OC(C)C` (centres unmarked) [Compound 75] were, in that order, 191 nM and 6.3 nM.
In the case of `CCOP(=O)(CCNC1Cn2cc(C(=O)NCc3ccc(F)cc3F)c(=O)c(O)c2C(=O)C1(C)C)OCC` (centres unmarked) [Compound 101], the IC50 runs as follows: under setting [3], 50 nM; under setting [1], 891 nM.
Consider `CC1(C)C(=O)c2c(O)c(=O)c(C(=O)NCc3ccc(F)cc3F)cn2CC1OCCP(=O)(O)O` (centres unmarked) [Compound 67], for which the IC50 came out at 4260 nM under setting [4] and 669 nM under setting [3].
In the case of `CCOP(=O)(CCOC1Cn2cc(C(=O)NCc3ccc(F)cc3F)c(=O)c(O)c2C(=O)C1(C)C)OCC` (centres unmarked) [Compound 65], the IC50 was 131 nM under setting [1] and 5.4 nM under setting [2].
The like results for `CCOP(=O)(CCCOCCC1(C)C(=O)c2c(O)c(=O)c(C(=O)NCc3ccc(F)cc3F)cn2CC1OC)OCC` (centres unmarked) [Compound 46] were, in that order, 102 nM and 4.2 nM.
For `CCOP(=O)(CCCNC1Cn2cc(C(=O)NCc3ccc(F)cc3F)c(=O)c(O)c2C(=O)C1(C)C)OCC` (centres unmarked) [Compound 106], the IC50 runs as follows: under setting [1], 95 nM; under setting [2], 3.6 nM.
The like results for `COC1Cn2cc(C(=O)NCc3ccc(F)cc3F)c(=O)c(O)c2C(=O)C1(C)COCCP(=O)(OCOC(=O)OC(C)C)OCOC(=O)OC(C)C` (centres unmarked) [Compound 43] were, in that order, 1480 nM and 1.4 nM.
The like results for `CCOP(=O)(CCOC1Cn2cc(C(=O)NCc3ccc(F)cc3F)c(=O)c(O)c2C(=O)C1(C)CCOC)OCC` (centres unmarked) [Compound 78] were, in that order, 580 nM and 17 nM.
For `COCCC1(C)C(=O)c2c(O)c(=O)c(C(=O)NCc3ccc(F)cc3F)cn2CC1OCCP(=O)(O)O` (centres unmarked) [Compound 83], the IC50 is 5380 nM under setting [1] and more than 1000 nM under setting [2].
As for `COC1Cn2cc(C(=O)NCc3ccc(F)cc3F)c(=O)c(O)c2C(=O)C1(C)COCCP(=O)(O)O` (centres unmarked) [Compound 39], the IC50 by setting is: under setting [1], 6930 nM; under setting [2], 337 nM.
As to `CCOP(=O)(CCOC1Cn2cc(C(=O)NCc3ccc(F)cc3F)c(=O)c(O)c2C(=O)C1(C)CCOC)OCC` (centres unmarked) [Compound 77], the IC50 by setting is: under setting [1], 128 nM; under setting [2], 5.5 nM.
`COC1Cn2cc(C(=O)NCc3ccc(F)cc3F)c(=O)c(O)c2C(=O)C1(C)CCOCCP(=O)(O)O` (centres unmarked) [Compound 58]: the IC50 was more than 1050 nM under setting [3] and more than 8400 nM under setting [1].
With `CC(C)OC(=O)OCOP(=O)(CCOC1Cn2cc(C(=O)NCc3ccc(F)cc3F)c(=O)c(O)c2C(=O)C1(C)C)OCOC(=O)OC(C)C` (centres unmarked) [Compound 69], the IC50 was found to be 25 nM under setting [1] and 1.1 nM under setting [2].
On to `CCOP(=O)(CCCOC1Cn2cc(C(=O)NCc3ccc(F)cc3F)c(=O)c(O)c2C(=O)C1(C)CCOC)OCC` (centres unmarked) [Compound 89], for which the IC50 was 211 nM under setting [1] and 15 nM under setting [2].
As to `CCOP(=O)(CCOC1Cn2cc(C(=O)NCc3ccc(F)cc3F)c(=O)c(O)c2C(=O)C1(C)CCOC)OCC` (centres unmarked) [Compound 79], the IC50 was found to be 177 nM under setting [1] and 15 nM under setting [2].
The matching figures for `CCOP(=O)(CCOCCC1(C)C(=O)c2c(O)c(=O)c(C(=O)NCc3ccc(F)cc3F)cn2CC1OC)OCC` (centres unmarked) [Compound 54]: 223 nM and 11 nM.
The matching figures for `CCOP(=O)(CCOCCC1(C)C(=O)c2c(O)c(=O)c(C(=O)NCc3ccc(F)cc3F)cn2CC1OC)OCC` (centres unmarked) [Compound 55]: 128 nM and 6.7 nM.
The like results for `CCOP(=O)(CCCOC1Cn2cc(C(=O)NCc3ccc(F)cc3F)c(=O)c(O)c2C(=O)C1(C)CCOC)OCC` (centres unmarked) [Compound 91] were, in that order, 600 nM and 31 nM.
On to `CCOP(=O)(CCOCCC1(C)C(=O)c2c(O)c(=O)c(C(=O)NCc3ccc(F)cc3F)cn2CC1OC)OCC` (centres unmarked) [Compound 56], for which the IC50 by setting is: under setting [1], 86 nM; under setting [2], 4.6 nM.
The like results for `CC1(C)C(=O)c2c(O)c(=O)c(C(=O)NCc3ccc(F)cc3F)cn2CC1OCCP(=O)(O)O` (centres unmarked) [Compound 68] were, in that order, more than 8000 nM and more than 1000 nM.
The matching figures for `CCOP(=O)(CCCOC1Cn2cc(C(=O)NCc3ccc(F)cc3F)c(=O)c(O)c2C(=O)C1(C)C)OCC` (centres unmarked) [Compound 72]: 923 nM and 26 nM.
The like results for `COC1Cn2cc(C(=O)NCc3ccc(F)cc3F)c(=O)c(O)c2C(=O)C1(C)COCCP(=O)(O)O` (centres unmarked) [Compound 36] were, in that order, 3600 nM and 629 nM.
Take `COC1Cn2cc(C(=O)NCc3ccc(F)cc3F)c(=O)c(O)c2C(=O)C1(C)CCOCCCP(=O)(O)O` (centres unmarked) [Compound 48]: the IC50 under setting [4] turned out to be 6940 nM and the IC50 under setting [3] was 626 nM.
Consider `COCCC1(C)C(=O)c2c(O)c(=O)c(C(=O)NCc3ccc(F)cc3F)cn2CC1OCCP(=O)(O)O` (centres unmarked) [Compound 81], for which the IC50 reads like this: under setting [1], 2120 nM; under setting [2], 665 nM.
The matching figures for `COC1Cn2cc(C(=O)NCc3ccc(F)cc3F)c(=O)c(O)c2C(=O)C1(C)CCOCCP(=O)(O)O` (centres unmarked) [Compound 60]: 5180 nM and 765 nM.
With `CCOP(=O)(CCCOC1Cn2cc(C(=O)NCc3ccc(F)cc3F)c(=O)c(O)c2C(=O)C1(C)C)OCC` (centres unmarked) [Compound 71], the IC50 amounted to 173 nM under setting [1] and 9.5 nM under setting [2].
The matching figures for `COC1Cn2cc(C(=O)NCc3ccc(F)cc3F)c(=O)c(O)c2C(=O)C1(C)CCOCCCP(=O)(O)O` (centres unmarked) [Compound 50]: more than 8400 nM and more than 1050 nM.
Take `CC1(C)C(=O)c2c(O)c(=O)c(C(=O)NCc3ccc(F)cc3F)cn2CC1NCCCP(=O)(O)O` (centres unmarked) [Compound 108]: the IC50 was 1260 nM under setting [4] and 95 nM under setting [3].
In the case of `CCOP(=O)(CCOCC1(C)C(=O)c2c(O)c(=O)c(C(=O)NCc3ccc(F)cc3F)cn2CC1OC)OCC` (centres unmarked) [Compound 32], the IC50 turned out to be 425 nM under setting [1] and 7.5 nM under setting [2].
The matching figures for `CCOP(=O)(CCNC1Cn2cc(C(=O)NCc3ccc(F)cc3F)c(=O)c(O)c2C(=O)C1(C)C)OCC` (centres unmarked) [Compound 102]: 150 nM and 25 nM.
With `CCOP(=O)(CCCNC1Cn2cc(C(=O)NCc3ccc(F)cc3F)c(=O)c(O)c2C(=O)C1(C)C)OCC` (centres unmarked) [Compound 105], the IC50 under setting [1] is 628 nM and the IC50 under setting [2] turned out to be 15 nM.
The matching figures for `COCCC1(C)C(=O)c2c(O)c(=O)c(C(=O)NCc3ccc(F)cc3F)cn2CC1OCCP(=O)(O)O` (centres unmarked) [Compound 84]: 2930 nM and 492 nM.
The matching figures for `COCCC1(C)C(=O)c2c(O)c(=O)c(C(=O)NCc3ccc(F)cc3F)cn2CC1OCCP(=O)(OCOC(=O)OC(C)C)OCOC(=O)OC(C)C` (centres unmarked) [Compound 87]: 21 nM and 0.8 nM.
The like results for `CCOP(=O)(CCOCC1(C)C(=O)c2c(O)c(=O)c(C(=O)NCc3ccc(F)cc3F)cn2CC1OC)OCC` (centres unmarked) [Compound 35] were, in that order, 86 nM and 3.5 nM.
`COC1Cn2cc(C(=O)NCc3ccc(F)cc3F)c(=O)c(O)c2C(=O)C1(C)CCOCCCP(=O)(O)O` (centres unmarked) [Compound 49]: the IC50 is, setting by setting: under setting [1], more than 8400 nM; under setting [2], more than 1050 nM.
The matching figures for `CCOP(=O)(CCOC1Cn2cc(C(=O)NCc3ccc(F)cc3F)c(=O)c(O)c2C(=O)C1(C)CCOC)OCC` (centres unmarked) [Compound 80]: 2750 nM and 378 nM.
The matching figures for `CCOP(=O)(CCOCC1(C)C(=O)c2c(O)c(=O)c(C(=O)NCc3ccc(F)cc3F)cn2CC1OC)OCC` (centres unmarked) [Compound 34]: 238 nM and 8.2 nM.
The like results for `CCOP(=O)(CCCOC1Cn2cc(C(=O)NCc3ccc(F)cc3F)c(=O)c(O)c2C(=O)C1(C)CCOC)OCC` (centres unmarked) [Compound 92] were, in that order, 2320 nM and 143 nM.
Turning to `COC1Cn2cc(C(=O)NCc3ccc(F)cc3F)c(=O)c(O)c2C(=O)C1(C)COCCP(=O)(OCOC(=O)OC(C)C)OCOC(=O)OC(C)C` (centres unmarked) [Compound 40], the IC50 runs as follows: under setting [1], 118 nM; under setting [2], 0.5 nM.
